Reference: patent US6689773B2, “Uracil substituted phenyl sulfamoyl carboxamides” (BASF Aktiengesellschaft, priority 2000, dated 2004)

How the values were obtained:
Assay type in all cases: in vivo
[1] = system: ABUTH, Velvetleaf, Abutilon theophrasti, Medic.; test: Postemergence herbicidal evaluation (Example 147); details: rating scale 0-9, two to three weeks after treatment
How it was run: (§1)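 Greenhouse postemergence test: two-week seedlings sprayed at about 0.016 to 0.032 kg/ha active. Scored visually, 0-9 scale, after two to three weeks.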

[2] = system: ALOMY, Blackgrass, Alopecurus myosuroides; test: Postemergence herbicidal evaluation (Example 147); details: rating scale 0-9, two to three weeks after treatment
How it was run: as §1

[3] = system: AMBEL, Ragweed, Common, Ambrosia artemiisifolia, L.; test: Postemergence herbicidal evaluation (Example 147); details: rating scale 0-9, two to three weeks after treatment
How it was run: as §1

[4] = system: CHEAL, Lambsquarters, Chenopodium album, L. Common; test: Postemergence herbicidal evaluation (Example 147); details: rating scale 0-9, two to three weeks after treatment
How it was run: as §1

[5] = system: DIGSA, Crabgrass, (Hairy) L, Digitaria sanguinalis, (L)Scop; test: Postemergence herbicidal evaluation (Example 147); details: rating scale 0-9, two to three weeks after treatment
How it was run: as §1

[6] = system: ECHCG, Barnyardgrass, Echinochloa crusgalli, (L.)Beau; test: Postemergence herbicidal evaluation (Example 147); details: rating scale 0-9, two to three weeks after treatment
How it was run: as §1

[7] = system: GLXMA, Soybean, Glycine max, (L.) Merr.; test: Postemergence herbicidal evaluation (Example 147); details: rating scale 0-9, two to three weeks after treatment
How it was run: as §1

[8] = system: IPOHE, Morningglory, Ivyleaf, Ipomoea hederacea, (L)Jacq.; test: Postemergence herbicidal evaluation (Example 147); details: rating scale 0-9, two to three weeks after treatment
How it was run: as §1

[9] = system: SETVI, Green foxtail, Setaria viridis, (L.)Beau; test: Postemergence herbicidal evaluation (Example 147); details: rating scale 0-9, two to three weeks after treatment
How it was run: as §1

[10] = system: TRZAW, Winter wheat, Tritium Aestivum, L. (Winter); test: Postemergence herbicidal evaluation (Example 147); details: rating scale 0-9, two to three weeks after treatment
How it was run: as §1

[11] = system: XANST, Cocklebur, Xanthium strumariam; test: Postemergence herbicidal evaluation (Example 147); details: rating scale 0-9, two to three weeks after treatment
How it was run: as §1

[12] = system: ZEAMX, Field corn, Zea mays L.; test: Postemergence herbicidal evaluation (Example 147); details: rating scale 0-9, two to three weeks after treatment
How it was run: as §1

[13] = system: ABUTH, Velvetleaf, Abutilon theophrasti, Medic.; test: Preemergence herbicidal evaluation (Example 148); details: rating scale 0-9, two to four weeks after treatment
How it was run: (§2)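 Visual rating vs. control (stand, vigor, malformation, size, chlorosis, overall appearance) at 2–4 wk post-treatment. Soil surface sprayed right after sowing; ~0.125–0.250 kg/ha in aqueous acetone. Repeat tests averaged.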

[14] = system: ALOMY, Blackgrass, Alopecurus myosuroides; test: Preemergence herbicidal evaluation (Example 148); details: rating scale 0-9, two to four weeks after treatment
How it was run: as §2

[15] = system: AMBEL, Ragweed, Common, Ambrosia artemiisifolia, L.; test: Preemergence herbicidal evaluation (Example 148); details: rating scale 0-9, two to four weeks after treatment
How it was run: as §2

[16] = system: CHEAL, Lambsquarters, Chenopodium album, L. Common; test: Preemergence herbicidal evaluation (Example 148); details: rating scale 0-9, two to four weeks after treatment
How it was run: as §2

[17] = system: DIGSA, Crabgrass, (Hairy) L, Digitaria sanguinalis, (L)Scop; test: Preemergence herbicidal evaluation (Example 148); details: rating scale 0-9, two to four weeks after treatment
How it was run: as §2

[18] = system: ECHCG, Barnyardgrass, Echinochloa crusgalli, (L.)Beau; test: Preemergence herbicidal evaluation (Example 148); details: rating scale 0-9, two to four weeks after treatment
How it was run: as §2

[19] = system: GLXMA, Soybean, Glycine max, (L.) Merr.; test: Preemergence herbicidal evaluation (Example 148); details: rating scale 0-9, two to four weeks after treatment
How it was run: as §2

[20] = system: IPOHE, Morningglory, Ivyleaf, Ipomoea hederacea, (L)Jacq.; test: Preemergence herbicidal evaluation (Example 148); details: rating scale 0-9, two to four weeks after treatment
How it was run: as §2

[21] = system: SETVI, Green foxtail, Setaria viridis, (L.)Beau; test: Preemergence herbicidal evaluation (Example 148); details: rating scale 0-9, two to four weeks after treatment
How it was run: as §2

[22] = system: TRZAW, Winter wheat, Tritium Aestivum, L. (Winter); test: Preemergence herbicidal evaluation (Example 148); details: rating scale 0-9, two to four weeks after treatment
How it was run: as §2

[23] = system: XANST, Cocklebur, Xanthium strumariam; test: Preemergence herbicidal evaluation (Example 148); details: rating scale 0-9, two to four weeks after treatment
How it was run: as §2

[24] = system: ZEAMX, Field corn, Zea mays L.; test: Preemergence herbicidal evaluation (Example 148); details: rating scale 0-9, two to four weeks after treatment
How it was run: as §2

CN(Cc1ccccc1)S(=O)(=O)NC(=O)c1cc(-n2c(=O)cc(C(F)(F)F)n(C)c2=O)c(F)cc1Cl [Example 61]
Postemergence herbicidal rating ABUTH ([1]; rate 0.016 kg/ha): 9.0 | Postemergence herbicidal rating ABUTH ([1]; rate 0.032 kg/ha): 9.0 | Postemergence herbicidal rating ALMOY ([2]; rate 0.016 kg/ha): 1.0 | Postemergence herbicidal rating ALMOY ([2]; rate 0.032 kg/ha): 1.0 | Postemergence herbicidal rating AMBEL ([3]; rate 0.016 kg/ha): 9.0 | Postemergence herbicidal rating AMBEL ([3]; rate 0.032 kg/ha): 9.0 | Postemergence herbicidal rating CHEAL ([4]; rate 0.016 kg/ha): 9.0 | Postemergence herbicidal rating CHEAL ([4]; rate 0.032 kg/ha): 8.0 | Postemergence herbicidal rating DIGSA ([5]; rate 0.016 kg/ha): 7.0 | Postemergence herbicidal rating DIGSA ([5]; rate 0.032 kg/ha): 6.0 | Postemergence herbicidal rating ECHCG ([6]; rate 0.016 kg/ha): 7.0 | Postemergence herbicidal rating ECHCG ([6]; rate 0.032 kg/ha): 8.0 | Postemergence herbicidal rating GLXMA ([7]; rate 0.016 kg/ha): 8.5 | Postemergence herbicidal rating GLXMA ([7]; rate 0.032 kg/ha): 8.5 | Postemergence herbicidal rating IPOHE ([8]; rate 0.016 kg/ha): 8.0 | Postemergence herbicidal rating IPOHE ([8]; rate 0.032 kg/ha): 9.0 | Postemergence herbicidal rating SETVI ([9]; rate 0.016 kg/ha): 7.0 | Postemergence herbicidal rating SETVI ([9]; rate 0.032 kg/ha): 9.0 | Postemergence herbicidal rating TRZAW ([10]; rate 0.016 kg/ha): 6.0 | Postemergence herbicidal rating TRZAW ([10]; rate 0.032 kg/ha): 6.5 | Postemergence herbicidal rating XANST ([11]; rate 0.016 kg/ha): 9.0 | Postemergence herbicidal rating XANST ([11]; rate 0.032 kg/ha): 9.0 | Postemergence herbicidal rating ZEAMX ([12]; rate 0.016 kg/ha): 7.5 | Postemergence herbicidal rating ZEAMX ([12]; rate 0.032 kg/ha): 7.5 | Preemergence herbicidal rating ABUTH ([13]; rate 0.125 kg/ha): 9.0 | Preemergence herbicidal rating ABUTH ([13]; rate 0.25 kg/ha): 9.0 | Preemergence herbicidal rating ALMOY ([14]; rate 0.125 kg/ha): 0.0 | Preemergence herbicidal rating ALMOY ([14]; rate 0.25 kg/ha): 0.0 | Preemergence herbicidal rating AMBEL ([15]; rate 0.125 kg/ha): 9.0 | Preemergence herbicidal rating AMBEL ([15]; rate 0.25 kg/ha): 9.0 | Preemergence herbicidal rating CHEAL ([16]; rate 0.125 kg/ha): 9.0 | Preemergence herbicidal rating CHEAL ([16]; rate 0.25 kg/ha): 9.0 | Preemergence herbicidal rating DIGSA ([17]; rate 0.125 kg/ha): 6.0 | Preemergence herbicidal rating DIGSA ([17]; rate 0.25 kg/ha): 9.0 | Preemergence herbicidal rating ECHCG ([18]; rate 0.125 kg/ha): 4.0 | Preemergence herbicidal rating ECHCG ([18]; rate 0.25 kg/ha): 7.0 | Preemergence herbicidal rating GLXMA ([19]; rate 0.125 kg/ha): 9.0 | Preemergence herbicidal rating GLXMA ([19]; rate 0.25 kg/ha): 9.0 | Preemergence herbicidal rating IPOHE ([20]; rate 0.125 kg/ha): 9.0 | Preemergence herbicidal rating IPOHE ([20]; rate 0.25 kg/ha): 9.0 | Preemergence herbicidal rating SETVI ([21]; rate 0.125 kg/ha): 3.0 | Preemergence herbicidal rating SETVI ([21]; rate 0.25 kg/ha): 6.0 | Preemergence herbicidal rating TRZAW ([22]; rate 0.125 kg/ha): 2.0 | Preemergence herbicidal rating TRZAW ([22]; rate 0.25 kg/ha): 3.0 | Preemergence herbicidal rating XANST ([23]; rate 0.125 kg/ha): 9.0 | Preemergence herbicidal rating XANST ([23]; rate 0.25 kg/ha): 9.0 | Preemergence herbicidal rating ZEAMX ([24]; rate 0.125 kg/ha): 2.0 | Preemergence herbicidal rating ZEAMX ([24]; rate 0.25 kg/ha): 2.0
